Assay results: ChEMBL document CHEMBL3526001, “Attenuation of intestinal absorption by major efflux transporters: quantitative tools and strategies using a Caco-2 model” (Drug Metab Dispos, 2011)

What was measured:
clinical = settings: human, in vivo
Description: Fraction absorbed in human

in vitro [1] = settings: human, Caco-2
in vitro [2] = settings: human, Caco-2; remark: listed apart in the source
in vitro [3] = settings: human, Caco-2; remark: listed apart in the source
P-gp = assay: in vitro; settings: human

Structure (SMILES)	Fa (clinical)	Papp B→A at 2 h, 10 µM (in vitro [1])	Papp A→B at 2 h, 10 µM (in vitro [2])	efflux ratio at 2 h, 10 µM (in vitro [3])	efflux ratio at 2 h, 10 µM (P-gp; Caco-2, with LY335979 1 uM)	efflux ratio at 2 h, 10 µM (P-gp; Caco-2)
O=C(O)COCCN1CCN(C(c2ccccc2)c2ccc(Cl)cc2)CC1 (configuration not stated) [CETIRIZINE]	66%					
COCc1c(C(C)C)nc(C(C)C)c(/C=C/[C@@H](O)C[C@@H](O)CC(=O)O)c1-c1ccc(F)cc1 [CERIVASTATIN]	98%					
CN(C)C(=O)C(CCN1CCC(O)(c2ccc(Cl)cc2)CC1)(c1ccccc1)c1ccccc1 [LOPERAMIDE]		7.6 ×10⁻⁶ cm/s	5.8 ×10⁻⁶ cm/s			
O=C1CN(/N=C/c2ccc([N+](=O)[O-])o2)C(=O)N1 [NITROFURANTOIN]	100%	11.1 ×10⁻⁶ cm/s	1.1 ×10⁻⁶ cm/s	10.4		
CC(C)c1nc(CN(C)C(=O)N[C@H](C(=O)N[C@@H](Cc2ccccc2)C[C@H](O)[C@H](Cc2ccccc2)NC(=O)OCc2cncs2)C(C)C)cs1 [RITONAVIR]	66%	9.2 ×10⁻⁶ cm/s	2.1 ×10⁻⁶ cm/s			
CC(=O)O[C@H]1C(=O)[C@@]2(C)[C@H]([C@H](OC(=O)c3ccccc3)[C@]3(O)C[C@H](OC(=O)[C@H](O)[C@@H](NC(=O)c4ccccc4)c4ccccc4)C(C)=C1C3(C)C)[C@]1(OC(C)=O)CO[C@@H]1C[C@@H]2O [PACLITAXEL]	6%					
CNS(=O)(=O)Cc1ccc2[nH]cc(CCN(C)C)c2c1		2.2 ×10⁻⁶ cm/s	1.5 ×10⁻⁶ cm/s	1.4	0.5	
CNCCC(Oc1ccc(C(F)(F)F)cc1)c1ccccc1 (configuration not stated) [FLUOXETINE]	70%					
O=C(O)c1cc(/N=N/c2ccc(O)c(C(=O)O)c2)ccc1O [OLSALAZINE]		3.1 ×10⁻⁶ cm/s	0.9 ×10⁻⁶ cm/s	3.7	1.9	
C[C@H]1C[C@@H]2[C@H]([C@@H](O)C[C@@]3(C)[C@H]2CC[C@]3(O)C(=O)CO)[C@@]2(C)C=CC(=O)C=C12 [METHYLPREDNISOLONE]		24.6 ×10⁻⁶ cm/s	8.5 ×10⁻⁶ cm/s	2.9	0.8	
OC(Cn1cncn1)(Cn1cncn1)c1ccc(F)cc1F [FLUCONAZOLE]		6.7 ×10⁻⁶ cm/s	11.6 ×10⁻⁶ cm/s	0.6		0.1
CCc1c2c(nc3ccc(OC(=O)N4CCC(N5CCCCC5)CC4)cc13)-c1cc3c(c(=O)n1C2)COC(=O)[C@]3(O)CC [IRINOTECAN]		5.1 ×10⁻⁶ cm/s	1.4 ×10⁻⁶ cm/s	3.7	2.7	
Cc1ccc(NC(=O)c2ccc(CN3CCN(C)CC3)cc2)cc1Nc1nccc(-c2cccnc2)n1 [IMATINIB]	67%					
COc1cc2nc(N3CCN(C(=O)c4ccco4)CC3)nc(N)c2cc1OC [PRAZOSIN]	100%	11.1 ×10⁻⁶ cm/s	6.2 ×10⁻⁶ cm/s	1.8		
COc1cc(Cc2cnc(N)nc2N)cc(OC)c1OC [TRIMETHOPRIM]		11.2 ×10⁻⁶ cm/s	15.9 ×10⁻⁶ cm/s	0.7		0.4
Cc1cn([C@H]2C[C@H](N=[N+]=[N-])[C@@H](CO)O2)c(=O)[nH]c1=O [ZIDOVUDINE]	90%	9.6 ×10⁻⁶ cm/s	6.7 ×10⁻⁶ cm/s	1.4		
OCCN(CCO)c1nc(N2CCCCC2)c2nc(N(CCO)CCO)nc(N3CCCCC3)c2n1 [DIPYRIDAMOLE]	66%					
CC(C)c1nc(N(C)S(C)(=O)=O)nc(-c2ccc(F)cc2)c1/C=C/[C@@H](O)C[C@@H](O)CC(=O)O [ROSUVASTATIN]	20%	7.5 ×10⁻⁶ cm/s	0.5 ×10⁻⁶ cm/s	15.9		
CC(C)CN(C[C@@H](O)[C@H](Cc1ccccc1)NC(=O)O[C@H]1CCOC1)S(=O)(=O)c1ccc(N)cc1	70%		8 ×10⁻⁶ cm/s			
CCN(CC)CCCC(C)Nc1ccnc2cc(Cl)ccc12 (configuration not stated) [CHLOROQUINE]	89%					
CC(=O)N1CCN(c2ccc(OCC3COC(Cn4ccnc4)(c4ccc(Cl)cc4Cl)O3)cc2)CC1 (configuration not stated) [KETOCONAZOLE]	90%	5.1 ×10⁻⁶ cm/s	18 ×10⁻⁶ cm/s			
